Source: ChEMBL document CHEMBL1201862, “PubChem BioAssay data set” (2004)
Activity calls are given as the source filed them.

Key:
[1] = system: Streptococcus sp. 'group A'; assay: growth inhibition of control SK(-) GAS strain, dose response, counter-screen for streptokinase expression inhibitor project, luminescence, kanamycin, BacTiterGlo, confirmation (AID 1900); assay type: functional, organism-based
[2] = target: T1, Streptokinase A (Streptococcus pyogenes serotype M1, UniProt P10520); assay: S. pyogenes streptokinase expression inhibitors, potency, dose response, plasminogen activation absorbance, OD405 (AID 1914); assay type: functional, Streptococcus pyogenes M1 GAS;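 further: secreted streptokinase activity via plasminogen activation per viability signal from cell pellet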
T1 sequence (P10520 whole entry): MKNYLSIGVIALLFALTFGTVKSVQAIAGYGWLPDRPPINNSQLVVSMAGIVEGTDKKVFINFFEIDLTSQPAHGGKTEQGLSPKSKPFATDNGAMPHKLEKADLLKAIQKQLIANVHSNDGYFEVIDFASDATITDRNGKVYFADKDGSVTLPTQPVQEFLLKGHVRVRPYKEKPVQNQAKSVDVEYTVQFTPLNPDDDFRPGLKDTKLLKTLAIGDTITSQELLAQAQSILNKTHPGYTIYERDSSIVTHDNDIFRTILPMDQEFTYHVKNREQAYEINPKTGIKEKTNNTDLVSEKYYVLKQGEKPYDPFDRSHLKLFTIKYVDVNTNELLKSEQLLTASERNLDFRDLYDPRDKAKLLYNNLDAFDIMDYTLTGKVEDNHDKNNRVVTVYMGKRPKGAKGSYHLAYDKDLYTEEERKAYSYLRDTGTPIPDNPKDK

[3] = target: Heat shock protein HSP 90-alpha (Homo sapiens, UniProt P07900); assay: Luminescence-based dose response biochemical high throughput screening assay for inhibitors of the Heat Shock Protein 90 (HSP90). [Related pubchem assays: 1831 (Summary AID.), 1846 (Confirmation screen.), 1789 (Primary screen.)]
[4] = system: Streptococcus; assay: Group A Streptococcus viability loss, dose response, counter-screen for streptokinase expression inhibitor project, luminescence, BacTiterGlo (AID 1915); assay type: functional, organism-based;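 further: potency for reduction of bacterial viability or growth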
[5] = target: Genome polyprotein (Hepatitis C virus, UniProt Q2Q167); assay: HCV core protein dimerization inhibitors, dose response, biochemical, TR-FRET (AID 2159); parameters: species or system Hepacivirus hominis;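 further: blocks dimerization of HCV core protein measured by TR-FRET between tagged core106 pairs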
Genome polyprotein (Hepatitis C virus, UniProt Q2Q167), sequence (Q2Q167 whole entry): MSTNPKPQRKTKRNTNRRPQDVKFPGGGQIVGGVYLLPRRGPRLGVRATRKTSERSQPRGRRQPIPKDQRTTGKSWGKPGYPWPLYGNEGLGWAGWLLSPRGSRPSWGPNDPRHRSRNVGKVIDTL

[6] = target: T2, SUMO-activating enzyme (Homo sapiens, UniProt Q9UBT2); assay: SUMOylation inhibitor hit validation, confirmation, SUMOylation inhibitor project, biochemical, AlphaScreen (AID 2018); assay type: functional
T2 sequence (Q9UBE0 whole entry): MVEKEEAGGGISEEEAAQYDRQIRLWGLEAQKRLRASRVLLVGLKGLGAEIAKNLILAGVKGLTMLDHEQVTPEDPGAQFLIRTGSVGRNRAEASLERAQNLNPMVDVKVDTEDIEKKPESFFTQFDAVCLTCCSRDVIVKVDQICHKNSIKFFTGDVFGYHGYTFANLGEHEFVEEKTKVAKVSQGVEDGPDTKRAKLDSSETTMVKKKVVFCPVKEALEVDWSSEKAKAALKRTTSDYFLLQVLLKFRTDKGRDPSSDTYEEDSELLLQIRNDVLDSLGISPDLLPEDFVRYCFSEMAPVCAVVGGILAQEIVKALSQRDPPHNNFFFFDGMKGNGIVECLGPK
T2 sequence (Q9UBT2 whole entry): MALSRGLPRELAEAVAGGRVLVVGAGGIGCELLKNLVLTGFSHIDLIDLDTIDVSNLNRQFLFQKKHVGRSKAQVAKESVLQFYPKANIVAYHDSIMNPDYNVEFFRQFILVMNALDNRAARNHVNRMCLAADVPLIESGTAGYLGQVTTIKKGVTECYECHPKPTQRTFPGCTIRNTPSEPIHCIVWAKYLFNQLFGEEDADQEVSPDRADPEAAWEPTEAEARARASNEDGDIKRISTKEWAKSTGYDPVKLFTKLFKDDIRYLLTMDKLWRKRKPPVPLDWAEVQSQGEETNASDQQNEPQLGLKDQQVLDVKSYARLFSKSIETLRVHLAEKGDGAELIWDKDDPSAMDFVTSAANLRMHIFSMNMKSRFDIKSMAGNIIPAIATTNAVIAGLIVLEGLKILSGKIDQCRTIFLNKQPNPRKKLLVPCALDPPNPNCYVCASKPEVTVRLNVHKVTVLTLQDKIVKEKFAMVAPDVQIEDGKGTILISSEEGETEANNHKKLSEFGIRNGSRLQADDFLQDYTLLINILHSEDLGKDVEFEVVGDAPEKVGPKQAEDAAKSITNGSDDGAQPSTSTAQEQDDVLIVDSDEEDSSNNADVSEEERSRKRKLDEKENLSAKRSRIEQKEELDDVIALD

[7] = target: T2, SUMO-activating enzyme; assay: inhibitors of in vitro SUMOylation cascade, primary screen, biochemical, HTRF, uHTS (AID 2006); assay type: protein-complex assay
[8] = target: Genome polyprotein (dengue virus type 2, UniProt P29990); assay: Dengue-2 NS5 methyltransferase inhibitors, primary screen, biochemical, confirmation dose response (AID 588689); assay type: functional
Genome polyprotein (dengue virus type 2, UniProt P29990), sequence (P29990 2492-3391 limits assumed): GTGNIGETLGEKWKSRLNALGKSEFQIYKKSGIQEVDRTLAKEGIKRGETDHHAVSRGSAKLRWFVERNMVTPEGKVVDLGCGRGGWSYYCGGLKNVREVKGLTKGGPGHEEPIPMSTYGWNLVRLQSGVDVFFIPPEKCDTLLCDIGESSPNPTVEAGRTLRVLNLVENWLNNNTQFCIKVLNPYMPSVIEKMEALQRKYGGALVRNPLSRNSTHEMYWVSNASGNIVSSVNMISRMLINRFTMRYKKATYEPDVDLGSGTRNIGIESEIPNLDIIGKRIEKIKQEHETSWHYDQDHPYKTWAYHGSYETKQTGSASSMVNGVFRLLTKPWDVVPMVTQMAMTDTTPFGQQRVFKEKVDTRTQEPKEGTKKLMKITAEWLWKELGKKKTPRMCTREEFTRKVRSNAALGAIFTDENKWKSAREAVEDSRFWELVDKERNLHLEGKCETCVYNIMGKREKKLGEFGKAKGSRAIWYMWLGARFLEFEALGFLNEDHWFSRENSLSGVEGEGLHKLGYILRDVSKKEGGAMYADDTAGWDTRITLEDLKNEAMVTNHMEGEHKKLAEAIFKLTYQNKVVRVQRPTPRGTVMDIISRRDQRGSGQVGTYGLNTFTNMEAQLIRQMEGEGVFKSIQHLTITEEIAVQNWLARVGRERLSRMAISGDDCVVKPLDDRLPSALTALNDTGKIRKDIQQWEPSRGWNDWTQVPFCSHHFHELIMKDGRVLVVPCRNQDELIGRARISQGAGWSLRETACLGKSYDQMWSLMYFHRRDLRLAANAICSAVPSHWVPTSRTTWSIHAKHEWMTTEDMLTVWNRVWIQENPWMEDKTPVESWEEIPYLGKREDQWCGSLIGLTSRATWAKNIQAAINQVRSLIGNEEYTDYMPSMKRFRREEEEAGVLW

[9] = target: Sphingosine 1-phosphate receptor 2 (Homo sapiens, UniProt O95136); assay: Dose Response Cell Based Assay for Antagonists of the S1P2 Receptor. [Related pubchem assays: 856, 736 ]; assay type: functional
Sphingosine 1-phosphate receptor 2, sequence (O95136 whole entry): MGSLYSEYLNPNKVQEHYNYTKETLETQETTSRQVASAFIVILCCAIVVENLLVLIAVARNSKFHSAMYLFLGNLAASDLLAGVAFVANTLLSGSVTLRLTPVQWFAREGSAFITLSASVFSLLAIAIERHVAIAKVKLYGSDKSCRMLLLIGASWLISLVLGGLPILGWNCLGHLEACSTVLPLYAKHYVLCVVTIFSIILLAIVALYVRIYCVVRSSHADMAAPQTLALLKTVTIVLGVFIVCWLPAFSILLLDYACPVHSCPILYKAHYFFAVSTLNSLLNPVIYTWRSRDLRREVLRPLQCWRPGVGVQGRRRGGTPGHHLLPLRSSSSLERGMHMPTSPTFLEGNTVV

[10] = cytotoxicity in HPDE-C7 cells, cell-based, fluorescence, HTS (AID 430); assay type: functional; conditions: Homo sapiens
[11] = cytotoxicity in KRAS-transformed pancreatic duct cells, primary screen, cell-based, fluorescence, HTS (AID 431); assay type: functional; conditions: Homo sapiens;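 further: cell line used: HPDE-C7K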
[12] = system: HEK293; assay: inhibitors of LMP1-driven NF-kB reporter, dose response, cell-based, HEK293, luciferase, cherry-pick (AID 588343); assay type: functional; conditions: Homo sapiens
[13] = Shn3 3'UTR reporter inhibitors, dose response, cell-based, Clone20 osteoblasts, firefly luciferase, cherry-picked (AID 624132); assay type: functional;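 further: firefly luciferase luminescence from reporter carrying the Shn3 3'UTR in osteoblasts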
[14] = HepG2 cell cytotoxicity, dose response, cytotoxicity control for Shn3 inhibitor project, CellTiter-Glo, cherry-picked (AID 624134); assay type: functional, cell-based
[15] = control 3'UTR Renilla luciferase suppression, dose response, counter-screen for Shn3 inhibitor project, cell-based, Clone20-Shn3RL, cherry-picked (AID 624133); assay type: functional
[16] = target: Galanin receptor type 3 (Homo sapiens, UniProt O60755); assay: Fluorescence-based cell-based primary high throughput dose response assay to identify antagonists of the Galanin Receptor 3 (GalR3).; assay type: functional
Galanin receptor type 3, sequence (O60755 whole entry): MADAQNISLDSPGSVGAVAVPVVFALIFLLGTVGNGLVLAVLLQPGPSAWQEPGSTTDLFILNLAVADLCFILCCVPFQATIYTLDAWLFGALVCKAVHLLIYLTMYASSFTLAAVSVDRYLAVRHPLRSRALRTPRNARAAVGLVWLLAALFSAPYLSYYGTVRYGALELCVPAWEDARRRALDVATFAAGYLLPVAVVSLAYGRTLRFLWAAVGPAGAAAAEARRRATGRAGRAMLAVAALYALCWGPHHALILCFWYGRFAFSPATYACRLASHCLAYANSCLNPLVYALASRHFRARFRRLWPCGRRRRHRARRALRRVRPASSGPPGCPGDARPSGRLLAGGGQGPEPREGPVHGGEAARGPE

[17] = cells; assay type: functional, cell-based; conditions: HEK-CNG
[18] = target: Mitogen-activated protein kinase 10 (Homo sapiens, UniProt P53779); assay: Dose response biochemical screening assay for inhibitors of c-Jun N-Terminal Kinase 3 (JNK3). [Related pubchem assays: 746 ]
Mitogen-activated protein kinase 10, sequence (P53779 whole entry): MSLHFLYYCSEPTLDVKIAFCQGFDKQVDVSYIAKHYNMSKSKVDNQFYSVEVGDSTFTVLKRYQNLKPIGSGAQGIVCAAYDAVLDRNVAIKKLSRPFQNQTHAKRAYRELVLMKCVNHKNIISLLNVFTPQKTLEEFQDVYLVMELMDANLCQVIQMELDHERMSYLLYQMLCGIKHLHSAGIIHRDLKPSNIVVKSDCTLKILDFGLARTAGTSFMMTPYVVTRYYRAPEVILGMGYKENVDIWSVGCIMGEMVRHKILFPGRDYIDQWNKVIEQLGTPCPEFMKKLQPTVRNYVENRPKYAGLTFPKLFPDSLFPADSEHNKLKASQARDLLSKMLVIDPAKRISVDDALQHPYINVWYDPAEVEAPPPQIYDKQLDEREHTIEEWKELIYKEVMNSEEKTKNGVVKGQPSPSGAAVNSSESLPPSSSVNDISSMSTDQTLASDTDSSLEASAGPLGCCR

In the case of `CCOC(=O)c1csc(NC(=O)c2ccc3c(c2)OCCO3)n1`, the EC50 [1] is reported as > 150 µM (not active), the EC50 [2] is reported as > 150 µM (not active) and the IC50 [3] is reported as 1.23 µM (active). The EC50 [4] was > 150 µM (not active).
With `COc1cc(/C=C2\C(=O)N(c3ccccc3)N=C2C)ccc1Oc1ccc([N+](=O)[O-])cc1[N+](=O)[O-]` the IC50 [5] was > 49.8 µM (not active), the IC50 [6] was 5.91 µM (active) and the IC50 [7] was 24.5 µM (active). For the same compound, the IC50 [8] was 58 µM (active).
With `CCC(NC(=O)Nc1nnc(C(F)(F)F)s1)(C(F)(F)F)C(F)(F)F` the IC50 [9] was 4.77 µM (active), the EC50 [1] was 1.4 µM (active) and the EC50 [10] was 2.79 µM (active). For the same compound, the EC50 [11] was 3.15 µM (active), the EC50 [4] was 3.27 µM (active) and the AC50 [12] was 7.24 µM (active). For the same compound, the AC50 [13] was 4.15 µM (active), the AC50 [14] was 6.87 µM (active) and the AC50 [15] was 4.23 µM (active). The IC50 [16] was > 3.32 µM (active) and the EC50 [17] was > 29.9 µM (inactive).
For `COc1cc(CC(=O)Nc2sccc2C(N)=O)cc(OC)c1OC`, the IC50 [18] was 5.94 µM (active).
